# Patent US20100120798A1, “SUBSTITUTED PIPERIDINES CONTAINING A HETEROARYLAMIDE OR HETEROARYLPHENYL MOIETY” (ASTEX THERAPEUTICS LIMITED, priority 2006, published 2010)
# Counter-ions that a name gives are not always drawn.
# Assay: In vitro MDA-MB-468 human breast adenocarcinoma GSK-3 phosphorylation assay
# Assay type: cell-based
# Conditions: mean IC50, MDA-MB-468 cells, 2 hours with compound, phospho-GSK-3β
# Excerpt: This assay determines the ability of test compounds to inhibit phosphorylation of Serine-9 residue in Glycogen Synthase Kinase-3beta (GSK-3β) as a surrogate marker of cellular PKB (Akt) activity, as assessed using Acumen Explorer Fluorescent Plate-Reader technology. A MDA-MB-468 human breast adenocarcinoma cell line (LGC Promochem, Teddington, Middlesex, UK, Catalogue No. HTB-132) was routinely maintained in Dulbecco's modified Eagle's growth medium (DMEM; Invitrogen Limited, Paisley, UK Catalogue No. 11966-025) containing 10% heat-inactivated foetal calf serum (FCS; Sigma, Poole, Dorset, UK, Catalogue No. F0392) and 1% L-glutamine (Gibco, Catalogue No. 25030-024) at 37° C. with 5% CO2 up to a confluency of 70-90%.
# For the phosphorylation assay, the cells were detached from the culture flask using Trypsin-EDTA (Invitrogen Limited, Catalogue No. 25300-062) and seeded into the wells of a black transparent-bottom Corning Costar Polystyrene 96 well plate (Fisher Scientific UK, Loughborough, Leicestershire, UK; Catalogue No. 3904 and DPS-130-020K) at a density of 5000 cells per well in 100 μl of complete growth media. The cells were incubated overnight at 37° C. with 5% CO2 to allow them to adhere.
# On day 2, the cells were treated with test compounds and incubated for 2 hours at 37° C. with 5% CO2. Test compounds were prepared as 10 mM stock solutions in DMSO and dosed directly to required concentration into test wells using non-contact (acoustic dispensing of multiple 2.5 nl droplets directly into assay wells) ECHO dosing technology (Labcyte Inc. Sunnyvale, Calif., USA). Each plate contained control wells without test compound.
# 20 μl of fixing buffer (Phosphate Buffered Saline (PBS) containing 10% formaldehyde; Sigma; Catalogue No. F1635) was then added to each well to give a final well concentration 1.6%. Plates were then incubated for 30 minutes at room temperature prior to the fixative being removed. Each well was washed once with 250 μl of PBS and then 50 μl PBS added to each well. PBS was then aspirated and cells permeabilised and blocked by incubating each well with 50 μl of permeabilisation/blocking buffer (PBS containing 0.5% Tween 20 (Sigma; Catalogue No. P5927) and 5% Marvel Milk Powder (Andrews Pharmacy Ltd, Macclesfield, Cheshire, UK; Catalogue No. APC100199)) for 1 hour at room temperature prior to staining.
# Following removal of Perm/Block buffer, 50 μl of primary anti-phospho-GSK-3β antibody (Cell Signalling Technology (New England Biolabs (Uk) Ltd.), Hitchin, Hertfordshire, UK; Catalogue No. 9336 diluted 1:400 in Blocking buffer (PBS containing 5% Marvel and 0.05% Tween/Polysorbate 20) was added to each well and incubated overnight at 4° C.
# Each well was washed three times in 250 μl of wash buffer (PBS containing 0.05% polysorbate 20), and cells incubated for 1 hour at room temperature with 50 μl of secondary fluorescently-labelled anti-rabbit Alexa Fluor 488 antibody (Molecular Probes, Invitrogen Limited, Catalogue No. A11008) diluted 1:750 in blocking buffer. Plates were washed three times in 250 μl of wash buffer and stored containing 50 μl of PBS at 4° C. until required.
# Plates were analysed using an Acumen Explorer Plate-reader to quantify level of fluorescent signal that represents quantity of phosphorylated-GSK-3β.
# IC50 calculation—IC50 is the concentration of compound required to give 50% effect over the range of activity affected by the compound, between maximum (no compound) and minimum (excess level of compound) response control data. IC50 values were determined by fitting background corrected, dose response assay data to a 4 parameter logistic curve fit equation model with the minimum response set to zero. This was done using an in-house developed algorithm within the Origin graphing software package (OriginLab Corporation, Northampton, Mass., USA). […]
row,SMILES,IC50 [µM]
1,"NC1(C(=O)NCc2cnc3ccccc3c2)CCN(c2ncnc3[nH]ccc23)CC1 [Example 41, 4-Amino-1-(7H-pyrrolo[2,3-d]pyrimidin-4-yl)-N-(quinolin-3-ylmethyl)piperidine-4-carboxamide]",4.1
2,"NC1(C(=O)NCc2cc3ccccc3[nH]2)CCN(c2ncnc3[nH]ccc23)CC1 [Example 50, 4-Amino-1-(7H-pyrrolo[2,3-d]pyrimidin-4-yl)-piperidine-4-carboxylic acid (1H-indol-2-ylmethyl)-amide]",0.7
3,"Cc1cnc(NC(=O)C2(CN)CCN(c3ncnc4[nH]ccc34)CC2)s1 [Example 59, 4-(aminomethyl)-N-(5-methylthiazol-2-yl)-1-(7H-pyrrolo[2,3-d]pyrimidin-4-yl)piperidine-4-carboxamide]",0.2
4,"Cn1cc(CNC(=O)C2(N)CCN(c3ncnc4[nH]ccc34)CC2)cn1 [Example 45, 4-amino-N-[(1-methylpyrazol-4-yl)methyl]-1-(7H-pyrrolo[2,3-d]pyrimidin-4-yl)piperidine-4-carboxamide]",> 19
5,"CN(C)CC(=O)NCC1(c2cccc(-c3cnn(C)c3)c2)CCN(c2ncnc3[nH]cnc23)CC1 [Example 36, 2-(dimethylamino)-N-((4-(3-(1-methyl-1H-pyrazol-4-yl)phenyl)-1-(9H-purin-6-yl)piperidin-4-yl)methyl)acetamide]",2.8
6,"CN(C)CC1(c2cccc(-c3cnn(C)c3)c2)CCN(c2ncnc3[nH]cnc23)CC1 [Example 32, N,N-dimethyl-1-(4-(3-(1-methyl-1H-pyrazol-4-yl)phenyl)-1-(9H-purin-6-yl)piperidin-4-yl)methanamine]",0.29
7,"NC1(C(=O)NCc2cc(-c3ccc(Cl)cc3)no2)CCN(c2ncnc3[nH]ccc23)CC1 [Example 44, 4-amino-N-[[3-(4-chlorophenyl)-1,2-oxazol-5-yl]methyl]-1-(7H-pyrrolo[2,3-d]pyrimidin-4-yl)piperidine-4-carboxamide]",19
8,"Cc1ccsc1CNC(=O)C1(N)CCN(c2ncnc3[nH]ccc23)CC1 [Example 47, 4-Amino-1-(7H-pyrrolo[2,3-d]pyrimidin-4-yl)-piperidine-4-carboxylic acid (3-methyl-thiophen-2-ylmethyl)-amide]",3.9
9,"NC1(C(=O)NCc2ccncc2)CCN(c2ncnc3[nH]ccc23)CC1 [Example 43, 4-Amino-N-(pyridin-4-ylmethyl)-1-(7H-pyrrolo[2,3-d]pyrimidin-4-yl)piperidine-4-carboxamide]",> 19
10,"Cc1cc(CNC(=O)C2(N)CCN(c3ncnc4[nH]ccc34)CC2)on1 [Example 49, 4-Amino-1-(7H-pyrrolo[2,3-d]pyrimidin-4-yl)-piperidine-4-carboxylic acid (3-methyl-isoxazol-5-ylmethyl)-amide]",4.2
11,"CNCC1(c2cccc(-c3cnn(C)c3)c2)CCN(c2ncnc3[nH]cnc23)CC1 [Example 9, Methyl-[4-[3-(1-methyl-1H-pyrazol-4-yl)-phenyl]-1-(9H-purin-6-yl)-piperidin-4-ylmethyl]-amine]",0.4
12,"NC1(C(=O)NCc2ccc(C(F)(F)F)nc2)CCN(c2ncnc3[nH]ccc23)CC1 [Example 14, 4-amino-1-(7H-pyrrolo[2,3-d]pyrimidin-4-yl)-piperidine-4-carboxylic acid (6-trifluoromethyl-pyridin-3-ylmethyl)-amide hydrochloride]",1.4
13,"NC1(C(=O)Nc2cccc(-c3nc4ccccc4o3)c2)CCN(c2ncnc3[nH]ccc23)CC1 [Example 52, 4-Amino-1-(7H-pyrrolo[2,3-d]pyrimidin-4-yl)-piperidine-4-carboxylic acid (3-benzooxazol-2-yl-phenyl)-amide]",5.1

# Compounds with a lower IC50, results first:
row,IC50 [µM],SMILES
1,0.11,"NCC1(C(=O)NCc2ccc(C(F)(F)F)nc2)CCN(c2ncnc3[nH]ccc23)CC1 [Example 27, 4-(Aminomethyl)-1-(7H-pyrrolo[2,3-d]pyrimidin-4-yl)-N-((6-(trifluoromethyl)pyridin-3-yl)methyl)piperidine-4-carboxamide]"
2,0.0086,"NCC1(C(=O)NCc2cc(Br)no2)CCN(c2ncnc3[nH]ccc23)CC1 [Example 24, 4-(Aminomethyl)-N-((3-bromoisoxazol-5-yl)methyl)-1-(7H-pyrrolo[2,3-d]pyrimidin-4-yl)piperidine-4-carboxamide]"
3,0.011,"Cn1cc(-c2cccc(C3(CN)CCN(c4ncnc5[nH]cc(Cl)c45)CC3)c2)cn1 [Example 29, (1-(5-Chloro-7H-pyrrolo[2,3-d]pyrimidin-4-yl)-4-(3-(1-methyl-1H-pyrazol-4-yl)phenyl)piperidin-4-yl)methanamine]"
4,< 0.013,"NCC1(c2cccc(-c3cncc(F)c3)c2)CCN(c2ncnc3[nH]cnc23)CC1 [Example 8, C-[4-[3-(5-Fluoro-pyridin-3-yl)-phenyl]-1-(9H-purin-6-yl)-piperidin-4-yl]-methylamine]"
5,0.01,"NCC1(C(=O)NCc2cc3ccccc3[nH]2)CCN(c2ncnc3[nH]nc(Br)c23)CC1 [Example 25, N-((1H-Indol-2-yl)methyl)-4-(aminomethyl)-1-(3-bromo-1H-pyrazolo[3,4-d]pyrimidin-4-yl)piperidine-4-carboxamide]"
6,0.054,"NCC1(C(=O)Nc2ccc(C(F)(F)F)nc2)CCN(c2ncnc3[nH]ccc23)CC1 [Example 82, 4-(Aminomethyl)-1-(7H-pyrrolo[2,3-d]pyrimidin-4-yl)-N-(6-(trifluoromethyl)pyridin-3-yl)piperidine-4-carboxamide]"
7,0.05,"NCC1(c2cccc(-c3ccco3)c2)CCN(c2ncnc3[nH]ccc23)CC1 [Example 78, [4-[3-(furan-2-yl)phenyl]-1-(7H-pyrrolo[3,2-e]pyrimindin-4-yl)piperidin-4-yl]methanamine]"
8,0.043,"Cc1ccc(CNC(=O)C2(CN)CCN(c3ncnc4[nH]ccc34)CC2)s1 [Example 23, 4-(Aminomethyl)-N-((5-methylthiophen-2-yl)methyl)-1-(7H-pyrrolo[2,3-d]pyrimidin-4-yl)piperidine-4-carboxamide]"
9,0.033,"NCC1(c2cccc(-c3cccnc3)c2)CCN(c2ncnc3[nH]ccc23)CC1 [Example 76, [4-(3-pyridin-3-ylphenyl)-1-(7H-pyrrolo[3,2-e]pyrimidin-4-yl)piperidin-4-yl]methanamine]"
10,0.017,"NCC1(c2cc(F)cc(-c3cncc(F)c3)c2)CCN(c2ncnc3[nH]ccc23)CC1 [Example 71, (4-(3-Fluoro-5-(5-fluoropyridin-3-yl)phenyl)-1-(7H-pyrrolo[2,3-d]pyrimidin-4-yl)piperidin-4-yl)methanamine]"
11,< 0.017,"Cn1cc(-c2cccc(C3(CN)CCN(c4ncnc5[nH]ccc45)CC3)c2)cn1 [Example 51, (4-(3-(1-Methyl-1H-pyrazol-4-yl)phenyl)-1-(7H-pyrrolo[2,3-d]pyrimidin-4-yl)piperidin-4-yl)methanamine]"
12,0.027,"Cc1c[nH]c2ncnc(N3CCC(CN)(c4cccc(-c5cnn(C)c5)c4)CC3)c12 [Example 30, (4-(3-(1-methyl-1H-pyrazol-4-yl)phenyl)-1-(5-methyl-7H-pyrrolo[2,3-d]pyrimidin-4-yl)piperidin-4-yl)methanamine]"
13,< 0.008,"Cc1sccc1-c1cccc(C2(CN)CCN(c3ncnc4[nH]cnc34)CC2)c1 [Example 7, C-[4-[3-(2-Methyl-thiophen-3-yl)-phenyl]-1-(9H-purin-6-yl)-piperidin-4-yl]-methylamine]"
14,< 0.0059,"NCC1(C(=O)NCc2ccc(Br)s2)CCN(c2ncnc3[nH]ccc23)CC1 [Example 21, 4-(aminomethyl)-N-((5-bromothiophen-2-yl)methyl)-1-(7H-pyrrolo[2,3-d]pyrimidin-4-yl)piperidine-4-carboxamide]"
